Consider two compounds from ChEMBL document CHEMBL5042510, “Structure-Guided Discovery of Aminoquinazolines as Brain-Penetrant and Selective LRRK2 Inhibitors” (J Med Chem, 2022).

Series [1] is described as follows: Unbound brain-to-plasma concentration ratio in rat at 2.5 uM incubated for 4 hrs by equilibrium dialysis method. Format: ADME, cell-free. As to conditions: brain and plasma (unbound), read-out: K(p,uu,brain). On the technique in general: Equilibrium dialysis compares concentrations on both sides of a semipermeable membrane.
Series [2] concerns the target Leucine-rich repeat serine/threonine-protein kinase 2 (Homo sapiens, UniProt Q5S007, G2019S). The series can be described thus: Inhibition of recombinant N-terminal GST-fused LRRK2 […] mutant (970 to 2527 residues) (unknown origin) preincubated with enzyme for 15 mins followed by fluorescein-labeled LRRKtide peptide substrate and ATP addition for 90 mins by TR-FRET assay. (Time-resolved FRET reads energy transfer from a long-lived donor to a nearby acceptor.)

The test system of series [3] is Leucine-rich repeat serine/threonine-protein kinase 2 (Homo sapiens), Q5S007 [G2019S]. The series can be described thus: Inhibition of LRRK2 […] mutant expressed in human SH-SY5Y cells assessed as unbound concentration required for inhibition of phosphorylation of LRRK2 at Ser935 residue incubated for 90 mins by MSD assay. Format: cell-based.
Series [4] relates to rat Mdr1a (P-gp). The series can be described thus: Efflux ratio of apparent permeability across basolateral to apical side over apical to basolateral side in rat Mdr1a-transfected pig LLC-PK1 cells at 0.1 to 1 uM measured after 3 hrs by LC/MS/MS analysis. It counts as ADME, cell-based, Sus scrofa. As to conditions: dose 0.1-1 µM.
The test system of series [5] is rat Mdr1a (P-gp). The series can be described thus: Apparent permeability from apical to basolateral side in rat Mdr1a-transfected pig LLC-PK1 cells at 0.1 to 1 uM measured after 3 hrs by LC/MS/MS analysis. It counts as ADME, cell-based, Sus scrofa. As to conditions: dose 0.1-1 µM.
Series [6] in a line: Intrinsic clearance in human hepatocytes at 0.3 uM incubated for 90 mins by LC/MS/MS analysis. Format: ADME, cell-based, Hepatocyte. As to conditions: read-out: CLH.
Series [7] can be described thus: Intrinsic clearance in rat hepatocytes at 0.3 uM incubated for 90 mins by LC/MS/MS analysis. Format: ADME, cell-based, Hepatocyte. As to conditions: read-out: CLH.
A short description of series [8]: Total plasma clearance in Wistar Han rat at 2 mg/kg, iv by LC-MS/MS analysis. It counts as ADME, organism-based.
A short description of series [9]: Intrinsic clearance in Wistar Han rat at 2 mg/kg, iv by LC-MS/MS analysis. As to conditions: in vivo. Format: ADME, organism-based.
Series [10] is described as follows: MRT in Wistar Han rat at 2 mg/kg, iv by LC-MS/MS analysis. Format: ADME, organism-based. As to conditions: in vivo.
A short description of series [11]: Intrinsic clearance in dog hepatocytes at 0.3 uM incubated for 90 mins by LC/MS/MS analysis. It counts as ADME, cell-based, Canis lupus familiaris, Hepatocyte. As to conditions: read-out: CLH.
A short description of series [12]: Total plasma clearance in Beagle dog at 0.25 mg/kg, iv by LC-MS/MS analysis. It counts as ADME, organism-based, Canis lupus familiaris.
Series [13] is described as follows: Intrinsic clearance in Beagle dog at 0.25 mg/kg, iv by LC-MS/MS analysis. It counts as ADME, organism-based, Canis lupus familiaris. As to conditions: in vivo.
Series [14] is described as follows: MRT in Beagle dog at 0.25 mg/kg, iv by LC-MS/MS analysis. It counts as ADME, organism-based, Canis lupus familiaris. As to conditions: in vivo.
Series [15] in a line: Oral bioavailability in Wistar Han rat at 10 mg/kg by LC-MS/MS analysis. As to conditions: in vivo. It counts as ADME, organism-based.
The nature of series [16]: Oral bioavailability in Beagle dog at 0.5 mg/kg by LC-MS/MS analysis. It counts as ADME, organism-based, Canis lupus familiaris. As to conditions: in vivo.
The subject of the next series is mouse Bcrp. The series can be described thus: Efflux ratio of apparent permeability across basolateral to apical over apical to basolateral side in mouse Bcrp-transfected dog MDCK-II cells at 0.1 to 1 uM measured after 3 hrs by LC/MS/MS analysis. As to conditions: dose 0.1-1 µM. It counts as ADME, cell-based, Canis lupus familiaris.
The target of series [17] is Voltage-gated inwardly rectifying potassium channel KCNH2 (Homo sapiens, UniProt Q12809). The series can be described thus: Inhibition of human ERG by voltage clamp assay. It counts as toxicity.
For series [18], the species on record is Homo sapiens. The series can be described thus: Selectivity ratio of IC50 for AURKA (unknown origin) to IC50 for LRRK2 (unknown origin).
The species named for series [19] is Homo sapiens. The series can be described thus: Selectivity ratio of IC50 for MAP3K8 (unknown origin) to IC50 for LRRK2 (unknown origin).
For series [20], the species on record is Homo sapiens. The series can be described thus: Selectivity ratio of IC50 for PRKCZ (unknown origin) to IC50 for LRRK2 (unknown origin).
Series [21] has as its target T1, 5-hydroxytryptamine receptor 1A (Homo sapiens) (UniProt P08908).
T1 sequence (whole entry): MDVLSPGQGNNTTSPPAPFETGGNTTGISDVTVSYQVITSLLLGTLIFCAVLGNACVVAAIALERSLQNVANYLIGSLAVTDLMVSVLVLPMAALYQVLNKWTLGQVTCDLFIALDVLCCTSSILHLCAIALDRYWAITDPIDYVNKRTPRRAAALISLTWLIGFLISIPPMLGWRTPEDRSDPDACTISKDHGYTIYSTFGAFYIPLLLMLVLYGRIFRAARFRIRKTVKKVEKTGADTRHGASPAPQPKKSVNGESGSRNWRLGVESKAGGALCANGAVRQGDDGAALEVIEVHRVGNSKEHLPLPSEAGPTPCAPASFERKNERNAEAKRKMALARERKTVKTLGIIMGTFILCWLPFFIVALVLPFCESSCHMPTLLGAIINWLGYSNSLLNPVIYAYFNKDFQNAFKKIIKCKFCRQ
The series can be described thus: Inhibition of human 5HT1A receptor at 10 uM.

Series [22] deals with Salmonella typhimurium. The series can be described thus: Mutagenicity in Salmonella typhimurium TA1535 at 30 to 5000 ug incubated for 48 hrs in presence of liver S9 fraction by AMES test. Format: toxicity, organism-based, Salmonella enterica subsp. enterica serovar Typhimurium. As to conditions: s9, 48 h, dose 30-5000 µg.
Series [23] relates to Salmonella typhimurium. The series can be described thus: Mutagenicity in Salmonella typhimurium TA98 at 30 to 5000 ug incubated for 48 hrs in presence of liver S9 fraction by AMES test. It counts as toxicity, organism-based, Salmonella enterica subsp. enterica serovar Typhimurium. As to conditions: s9, 48 h, dose 30-5000 µg.
Series [24] has as its system Salmonella typhimurium. The series can be described thus: Mutagenicity in Salmonella typhimurium TA100 at 30 to 5000 ug incubated for 48 hrs in presence of liver S9 fraction by AMES test. It counts as toxicity, organism-based, Salmonella enterica subsp. enterica serovar Typhimurium. As to conditions: s9, 48 h, dose 30-5000 µg.
A short description of series [25]: Toxicity in rat assessed as drug tolerability at 25 to 300 mg/kg, po qd administered for 4 days. Format: organism-based. As to conditions: in vivo, 96 h, dose 25-300 mg/kg, time 4 day.
Series [26] in a line: Toxicity in rat assessed as body weight loss at 300 mg/kg, po qd administered for 4 days. Format: organism-based. As to conditions: in vivo, 96 h, time 4 day.
A short description of series [27]: Toxicity in rat assessed as positive heart transcriptional score at 300 mg/kg, po qd administered for 4 days. It counts as organism-based. As to conditions: in vivo, 96 h, time 4 day.
Series [28] in a line: Toxicity in rat assessed as positive liver transcriptional score at 300 mg/kg, po qd administered for 4 days. Format: organism-based. As to conditions: in vivo, 96 h, time 4 day.
The nature of series [29]: Toxicity in rat assessed as elevation of liver enzyme biomarker levels at 300 mg/kg, po qd administered for 4 days. It counts as organism-based. As to conditions: in vivo, 96 h, time 4 day.
A short description of series [30]: In vivo inhibition of LRRK2 in po dosed CD rat assessed as unbound concentration required for reduction in phosphorylation at Ser935 residue in striatum measured after 2 hrs by MSD assay. It counts as functional.
For the next series, the system named is human MDR1 (P-gp). The series can be described thus: Efflux ratio of apparent permeability across basolateral to apical side over apical to basolateral side in human MDR1-transfected dog MDCKII-MDR1 cells at 0.1 to 1 uM measured after 3 hrs by LC/MS/MS analysis. It counts as ADME, cell-based, Canis lupus familiaris. As to conditions: MDCK-MDR1, dose 0.1-1 µM.

Series [31] is described as follows: Unbound brain-to-plasma concentration ratio in non-human primates by positron emission tomography. Format: ADME. As to conditions: brain and plasma (unbound), read-out: K(p,uu,brain).

Sequence of Leucine-rich repeat serine/threonine-protein kinase 2 (Homo sapiens), Q5S007 [G2019S] (Q5S007 whole entry G2019S): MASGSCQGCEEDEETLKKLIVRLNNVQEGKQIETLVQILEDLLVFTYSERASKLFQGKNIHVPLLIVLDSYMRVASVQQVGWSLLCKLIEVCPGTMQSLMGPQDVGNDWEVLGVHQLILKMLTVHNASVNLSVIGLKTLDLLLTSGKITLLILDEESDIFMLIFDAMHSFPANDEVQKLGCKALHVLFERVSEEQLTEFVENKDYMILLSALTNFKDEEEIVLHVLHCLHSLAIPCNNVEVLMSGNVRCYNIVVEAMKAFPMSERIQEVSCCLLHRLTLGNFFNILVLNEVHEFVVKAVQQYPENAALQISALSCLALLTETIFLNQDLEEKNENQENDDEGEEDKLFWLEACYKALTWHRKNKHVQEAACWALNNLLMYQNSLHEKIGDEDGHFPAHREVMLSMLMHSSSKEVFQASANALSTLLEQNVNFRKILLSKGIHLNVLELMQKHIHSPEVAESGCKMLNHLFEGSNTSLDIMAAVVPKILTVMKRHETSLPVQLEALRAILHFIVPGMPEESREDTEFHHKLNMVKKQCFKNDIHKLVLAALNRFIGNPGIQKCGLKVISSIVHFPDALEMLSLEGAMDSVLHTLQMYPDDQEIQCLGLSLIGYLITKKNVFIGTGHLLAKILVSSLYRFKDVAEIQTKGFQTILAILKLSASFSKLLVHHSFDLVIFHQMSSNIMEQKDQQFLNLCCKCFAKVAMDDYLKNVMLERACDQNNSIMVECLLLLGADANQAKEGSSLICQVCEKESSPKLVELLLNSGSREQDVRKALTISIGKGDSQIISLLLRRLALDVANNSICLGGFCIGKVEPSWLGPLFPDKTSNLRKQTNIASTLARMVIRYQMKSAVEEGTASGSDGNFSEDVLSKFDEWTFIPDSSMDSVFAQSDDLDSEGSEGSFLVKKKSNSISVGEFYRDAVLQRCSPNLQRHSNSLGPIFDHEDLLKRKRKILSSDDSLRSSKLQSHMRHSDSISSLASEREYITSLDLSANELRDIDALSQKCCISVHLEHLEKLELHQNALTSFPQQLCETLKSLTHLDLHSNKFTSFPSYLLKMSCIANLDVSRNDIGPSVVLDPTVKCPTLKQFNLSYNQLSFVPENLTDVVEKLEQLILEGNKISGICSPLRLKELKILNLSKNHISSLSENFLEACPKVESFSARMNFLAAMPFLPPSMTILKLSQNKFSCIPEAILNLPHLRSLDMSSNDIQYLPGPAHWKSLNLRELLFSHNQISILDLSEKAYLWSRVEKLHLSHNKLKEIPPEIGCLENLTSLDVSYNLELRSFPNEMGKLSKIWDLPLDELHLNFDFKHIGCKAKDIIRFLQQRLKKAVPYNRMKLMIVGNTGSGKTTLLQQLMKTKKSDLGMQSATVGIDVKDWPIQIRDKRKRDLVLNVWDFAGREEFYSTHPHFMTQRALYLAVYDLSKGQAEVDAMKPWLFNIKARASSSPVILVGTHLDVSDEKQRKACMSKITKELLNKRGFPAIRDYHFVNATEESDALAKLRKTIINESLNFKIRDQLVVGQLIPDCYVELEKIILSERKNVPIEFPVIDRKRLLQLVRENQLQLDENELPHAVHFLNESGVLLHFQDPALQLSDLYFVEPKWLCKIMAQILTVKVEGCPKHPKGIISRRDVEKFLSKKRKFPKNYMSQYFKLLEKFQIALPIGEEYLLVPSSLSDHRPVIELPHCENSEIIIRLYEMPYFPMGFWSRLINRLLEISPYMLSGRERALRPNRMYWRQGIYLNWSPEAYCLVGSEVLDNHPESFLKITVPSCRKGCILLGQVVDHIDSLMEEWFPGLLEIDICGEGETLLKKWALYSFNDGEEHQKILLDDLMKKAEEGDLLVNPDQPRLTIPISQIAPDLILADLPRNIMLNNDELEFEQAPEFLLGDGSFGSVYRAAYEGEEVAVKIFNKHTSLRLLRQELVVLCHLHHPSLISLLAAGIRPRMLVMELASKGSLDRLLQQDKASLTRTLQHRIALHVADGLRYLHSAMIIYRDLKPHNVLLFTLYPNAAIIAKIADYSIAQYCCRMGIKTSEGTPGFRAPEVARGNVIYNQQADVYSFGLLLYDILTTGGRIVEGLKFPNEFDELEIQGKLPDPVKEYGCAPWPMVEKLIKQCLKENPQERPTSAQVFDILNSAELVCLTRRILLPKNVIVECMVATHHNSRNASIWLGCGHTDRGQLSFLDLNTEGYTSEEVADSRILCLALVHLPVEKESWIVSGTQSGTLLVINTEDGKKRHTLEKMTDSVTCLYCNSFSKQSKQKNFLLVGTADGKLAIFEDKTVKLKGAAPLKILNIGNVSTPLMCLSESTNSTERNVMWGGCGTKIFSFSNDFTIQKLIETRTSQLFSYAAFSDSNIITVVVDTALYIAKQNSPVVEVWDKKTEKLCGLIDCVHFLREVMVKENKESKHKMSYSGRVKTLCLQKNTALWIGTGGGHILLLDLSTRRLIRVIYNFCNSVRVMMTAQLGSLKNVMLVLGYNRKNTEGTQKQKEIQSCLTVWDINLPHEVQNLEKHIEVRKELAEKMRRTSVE
Sequence of Leucine-rich repeat serine/threonine-protein kinase 2 (Q5S007 whole entry G2019S, the tested form may be a part): as the sequence (Q5S007 whole entry G2019S) above
Sequence of Voltage-gated inwardly rectifying potassium channel KCNH2 (Q12809 whole entry): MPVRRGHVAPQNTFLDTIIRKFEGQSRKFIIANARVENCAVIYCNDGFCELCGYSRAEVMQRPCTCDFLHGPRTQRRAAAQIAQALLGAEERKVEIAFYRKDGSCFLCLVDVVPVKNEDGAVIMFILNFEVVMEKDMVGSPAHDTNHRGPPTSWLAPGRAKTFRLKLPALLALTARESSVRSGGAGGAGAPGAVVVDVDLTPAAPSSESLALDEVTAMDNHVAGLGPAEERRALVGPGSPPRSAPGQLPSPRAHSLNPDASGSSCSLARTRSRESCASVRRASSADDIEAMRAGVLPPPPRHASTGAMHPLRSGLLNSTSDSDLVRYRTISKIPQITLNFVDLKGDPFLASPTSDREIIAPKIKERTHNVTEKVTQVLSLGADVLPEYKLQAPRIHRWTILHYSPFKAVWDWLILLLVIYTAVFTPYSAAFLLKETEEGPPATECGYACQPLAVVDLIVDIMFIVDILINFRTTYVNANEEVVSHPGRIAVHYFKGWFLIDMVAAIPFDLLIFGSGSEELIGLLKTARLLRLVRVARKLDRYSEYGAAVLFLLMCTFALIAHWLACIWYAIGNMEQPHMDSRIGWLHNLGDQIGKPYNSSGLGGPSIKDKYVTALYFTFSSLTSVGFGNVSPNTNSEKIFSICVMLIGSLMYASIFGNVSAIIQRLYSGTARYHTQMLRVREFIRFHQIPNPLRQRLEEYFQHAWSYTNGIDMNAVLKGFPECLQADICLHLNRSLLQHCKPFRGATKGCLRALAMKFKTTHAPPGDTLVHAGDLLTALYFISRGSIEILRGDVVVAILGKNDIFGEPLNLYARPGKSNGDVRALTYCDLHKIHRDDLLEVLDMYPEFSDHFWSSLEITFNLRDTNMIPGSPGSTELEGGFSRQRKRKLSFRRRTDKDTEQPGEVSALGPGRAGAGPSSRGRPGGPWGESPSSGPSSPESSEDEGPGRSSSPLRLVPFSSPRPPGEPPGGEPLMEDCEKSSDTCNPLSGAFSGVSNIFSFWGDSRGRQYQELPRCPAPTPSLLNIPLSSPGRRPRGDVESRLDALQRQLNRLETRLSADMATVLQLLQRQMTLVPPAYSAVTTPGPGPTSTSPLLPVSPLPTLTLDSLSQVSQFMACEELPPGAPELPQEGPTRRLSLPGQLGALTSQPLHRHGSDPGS

What is called IC50 is the concentration that inhibits the measured activity by half. What is called efflux ratio is the permeability from basolateral to apical divided by that in the opposite direction, in the common usage. As a reminder, the Papp A→B is the apparent permeability from the apical to the basolateral side of a cell layer. Broadly, the clearance is the volume of plasma or blood freed of the substance per unit of time. Read a high clearance as a high capacity for elimination. What is called MRT is a mean duration of stay, worked out from the concentration-time curve. Usually bioavailability stands for dose-corrected exposure relative to a reference, in per cent. A lower bioavailability goes with little systemic uptake. By inhibition is commonly meant the share of the control response that was lost under treatment. The low end stands for a weak effect, the high end for a strong effect. Take `CC(C)(O)Cn1ncc(Nc2ncc3cc(Cl)c(C4CCN(C5COC5)CC4)cc3n2)c1Cl`: in series [1], the Kp uu at 4 h, 2.5 µM worked out at 0.3. In addition, the IC50 in series [2] worked out at 0.8 nM; in series [17], 23 µM. In addition, the fIC50 in series [3] worked out at 58 nM; in series [30] it was 68 nM. Besides, the efflux ratio at 3 h, up to 1 µM with rat Mdr1a (P-gp) [4] and in the series on mouse Bcrp was 4.2 each time. Also, in the series on rat Mdr1a (P-gp) [5], the Papp A→B at 3 h, up to 1 µM was 33 ×10⁻⁶ cm/s. Besides, the CLint scaled at 0.3 µM was determined as 132 mL/min/kg in series [6], 311 mL/min/kg in series [7] and 150 mL/min/kg in series [11]. In addition, the clearance in series [8] came to 11 mL/min/kg; in series [12], 7 mL/min/kg. Besides, the CL came out at 175 mL/min/kg in [9] and 63 mL/min/kg in [13]. The figures for the MRT in series [10] and in series [14] were 2.7 h and 7.8 h, respectively. The bioavailability in series [15] was determined as 95%; in [16] it was 85%. Further, the Ratio IC50 in the series filed under Homo sapiens [18], in the series listed under Homo sapiens [19] and in the series filed under Homo sapiens [20] was less than 100 each time. The compound further returned an inhibition in series [21] greater than 50%. Also, the Activity result with Salmonella typhimurium [22] is “Non-Toxic”; in the series with Salmonella typhimurium [23] it was “Non-Toxic”; with Salmonella typhimurium [24] it was “Non-Toxic”; in [25], “Non-Toxic”; in [26], 11%; in series [27], “Toxic”. Besides, the Activity result in [28] and in [29] was “Toxic” throughout.

Take `COc1cc2ncnc(Nc3cccc(Cl)c3F)c2cc1OC(=O)N1CCN(C)C[C@H]1C` [AZD-3759]: the efflux ratio at 3 h, up to 1 µM in the series on human MDR1 (P-gp) is 0.41. For the same compound, the Kp uu at 4 h, 2.5 µM in [1] came to 1.3. Further, in series [31], the Kp uu was 0.52.
